Where a name gives a salt, the structure may show the parent alone.
Legend:
[1] = in the presence of iron (III)
[2] = Stability of urea on exposure to higher temperature; assay type: physicochemical; settings: 180° C. for 8 h
Protocol: In order to assess the stability of synthetic acids containing urea, the stability of urea was tested by only considering its exposure to higher temperature. Urea 50% diluted with 50% seawater @ 180° C. for 8 h. […] This confirms that synthetic acids containing urea have decreasing stability when heated above 90° C. and are less desirable to use than compositions according to the present invention which have stability when exposed to temperatures above 200° C.

With `Cl` [HCl, hydrochloric acid] the “pH of full precipitation” value [1] was “approximately 2.5”.

With “Urea [Urea 50% diluted with 50% seawater]” the “observation after exposure to high temperature” value [2] was “strong ammonia smell”, the “pH after exposure to high temperature” value [2] was 9.44 and the “pH before exposure to high temperature” value [2] was 7.61.
